Experimental data published in US20230321288A1, “RIBOFLAVIN PHOTOCHEMICAL TREATMENT (RPT)-BASED INACTIVATION METHOD OF PATHOGENS IN BIOLOGICAL LIQUID SAMPLE” (INSTITUTE OF BLOOD TRANSFUSION CHINESE ACADEMY OF MEDICAL …, priority 2020, published 2023).

Tests used:
Staphylococcus aureus = test: RPT-based inactivation of Staphylococcus aureus in apheresis platelets, growth detected by Reed-Muench method (Example 2); assay type: cell-based; details: 50 μM riboflavin, 30 min
Method: (§1) In this example, the apheresis platelets containing 50 μM of riboflavin were separately irradiated with LED lamp beads with a wavelength of 395 nm±5 nm and fluorescent tubes with a wavelength of 309 nm to 313 nm for 30 min at irradiation intensities of 1 W (395 nm f 5 nm) and 9 W (309 nm to 313 nm), respectively. The growth of Staphylococcus aureus in the blood products was then detected by a Reed-Muench method.

E. coli = test: RPT-based inactivation of E. coli in plasma, growth detected by Reed-Muench method (Example 1); assay type: cell-based, Escherichia coli; details: 50 μM riboflavin, 15 min, 1 W
Method: In this example, the plasma of healthy blood donors containing 50 μM of riboflavin was irradiated with LED lamp beads in a series of wavelength ranges for 15 min at an irradiation intensity of 1 W. The growth of E. coli in the blood products was then detected by a Reed-Muench method.

apheresis platelets = test: Quality of platelet preservation after RPT (Example 2, Table 1); assay type: cell-based; details: for K^+ / MPV / Na^+ / PH: platelets, 50 μM riboflavin, 30 min
Method: as §1
The properties and component contents of the platelet samples in the three groups of experiments were compared, and the results were as follows: […]

**Q.** With `Cc1cc2nc3c(=O)[nH]c(=O)nc-3n(C[C@H](O)[C@H](O)[C@H](O)CO)c2cc1C` [riboflavin] as the molecule, how does the “inactivation of S. aureus” value (Staphylococcus aureus; 309 nm to 313 nm fluorescent tubes, 9 W) read?
**A.** could inactivate the S. aureus

**Q.** And the “inactivation effect on S. aureus compared with 309 nm to 313 nm fluorescent tubes” value (Staphylococcus aureus; 395 nm±5 nm LED)?
**A.** better

**Q.** What about the “inactivation of S. aureus” value (Staphylococcus aureus; 395 nm±5 nm LED, 1 W) of the same molecule?
**A.** could inactivate the S. aureus

**Q.** What about the “pathogen inactivation effect on E. coli” value (E. coli; LED 365 nm ± 5 nm) of the same molecule?
**A.** desirable pathogen inactivation effect

**Q.** And the “pathogen inactivation effect on E. coli” value (E. coli; LED 395 nm±5 nm)?
**A.** desirable pathogen inactivation effect

**Q.** And the “damage to the platelet samples” value (apheresis platelets)?
**A.** significantly less damage

**Q.** What about the “K^+” value (apheresis platelets; 309 nm to 313 nm, 9 W) of the same molecule?
**A.** 3 mmol/L

**Q.** What about the MPV (apheresis platelets; 309 nm to 313 nm, 9 W) of the same molecule?
**A.** 12.1

**Q.** What about the “Na^+” value (apheresis platelets; 309 nm to 313 nm, 9 W) of the same molecule?
**A.** 151 mmol/L

**Q.** What about the PH (apheresis platelets; 309 nm to 313 nm, 9 W) of the same molecule?
**A.** 7.26

**Q.** What about the “K^+” value (apheresis platelets; 395 nm ± 5 nm, 1 W) of the same molecule?
**A.** 2.7 ± 0^ mmol/L

**Q.** What about the MPV (apheresis platelets; 395 nm ± 5 nm, 1 W) of the same molecule?
**A.** 9.5 ± 0^

**Q.** And the “Na^+” value (apheresis platelets; 395 nm ± 5 nm, 1 W)?
**A.** 153.6 ± 0.49 mmol/L

**Q.** And the PH (apheresis platelets; 395 nm ± 5 nm, 1 W)?
**A.** 7.45 ± 0.01
